Source: paper PMC6120918, “Epigenetic modulator UVI5008 inhibits MRSA by interfering with bacterial gyrase” (Scientific Reports, 2018)

Legend:
[1] = target: T1, DNA gyrase subunit A (Staphylococcus aureus, UniProt P20831); test: gyrase supercoiling assay, positive control at […]; assay type: biochemical
T1 construct: gene gyrA; recombinant DNA gyrase (A and B subunits; supercoiling assay kit); with DNA gyrase subunit B

[2] = target: T2, DNA gyrase (Staphylococcus aureus, UniProt P0A0K8+P20831); test: gyrase supercoiling assay of relaxed pBR322, agarose gel; assay type: biochemical
T2 construct: gene gyrA; recombinant DNA gyrase (A and B subunits; supercoiling assay kit); with DNA gyrase subunits A and B together (holoenzyme; target subunit not determined)
T2 sequence (P20831 whole entry): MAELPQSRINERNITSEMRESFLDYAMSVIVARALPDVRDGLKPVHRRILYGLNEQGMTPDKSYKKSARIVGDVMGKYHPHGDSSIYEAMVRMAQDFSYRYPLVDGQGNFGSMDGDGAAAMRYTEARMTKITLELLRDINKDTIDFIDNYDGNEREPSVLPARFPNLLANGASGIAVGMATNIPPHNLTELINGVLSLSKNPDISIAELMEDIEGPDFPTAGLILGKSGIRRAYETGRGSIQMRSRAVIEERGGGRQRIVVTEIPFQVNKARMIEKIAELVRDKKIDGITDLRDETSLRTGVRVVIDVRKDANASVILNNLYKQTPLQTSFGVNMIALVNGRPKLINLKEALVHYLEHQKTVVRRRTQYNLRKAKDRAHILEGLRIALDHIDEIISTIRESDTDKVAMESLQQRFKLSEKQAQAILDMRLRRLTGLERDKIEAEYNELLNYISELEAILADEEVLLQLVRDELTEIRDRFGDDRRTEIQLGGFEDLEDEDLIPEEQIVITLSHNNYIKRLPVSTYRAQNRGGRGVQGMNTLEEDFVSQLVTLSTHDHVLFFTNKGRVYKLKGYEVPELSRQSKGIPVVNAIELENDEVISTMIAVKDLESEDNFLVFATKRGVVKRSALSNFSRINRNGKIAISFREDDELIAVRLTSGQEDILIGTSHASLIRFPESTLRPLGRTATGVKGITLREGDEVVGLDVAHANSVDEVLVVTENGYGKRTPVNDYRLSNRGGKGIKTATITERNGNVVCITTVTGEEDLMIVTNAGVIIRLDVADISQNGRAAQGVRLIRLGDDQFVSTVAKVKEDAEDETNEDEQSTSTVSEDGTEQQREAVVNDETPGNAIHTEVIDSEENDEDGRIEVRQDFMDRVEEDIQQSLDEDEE
T2 sequence (P0A0K8 2-644): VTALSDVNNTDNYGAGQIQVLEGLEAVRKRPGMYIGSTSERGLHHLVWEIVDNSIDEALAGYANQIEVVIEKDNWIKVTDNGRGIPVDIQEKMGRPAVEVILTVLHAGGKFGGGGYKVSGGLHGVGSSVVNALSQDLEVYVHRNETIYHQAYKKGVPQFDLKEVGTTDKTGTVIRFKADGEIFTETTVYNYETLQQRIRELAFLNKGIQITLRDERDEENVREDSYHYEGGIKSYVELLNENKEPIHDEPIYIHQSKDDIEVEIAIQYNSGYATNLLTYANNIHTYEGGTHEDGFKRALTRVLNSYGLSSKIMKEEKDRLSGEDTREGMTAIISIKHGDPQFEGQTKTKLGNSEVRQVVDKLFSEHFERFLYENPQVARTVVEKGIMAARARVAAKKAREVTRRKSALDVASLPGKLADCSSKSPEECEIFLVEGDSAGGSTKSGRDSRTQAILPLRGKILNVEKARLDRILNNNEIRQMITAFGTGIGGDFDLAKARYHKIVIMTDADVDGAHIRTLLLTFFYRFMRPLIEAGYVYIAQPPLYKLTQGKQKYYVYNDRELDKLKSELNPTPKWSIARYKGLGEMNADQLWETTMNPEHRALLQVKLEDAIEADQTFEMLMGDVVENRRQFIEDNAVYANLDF

T1 sequence (P20831 whole entry): as the sequence (P20831 whole entry) above

## O=C(O)c1cn(C2CC2)c2cc(N3CCNCC3)c(F)cc2c1=O [ciprofloxacin]
[1]
  gyrase supercoiling assay, positive control at 30 μM: Ciprofloxacin was used as the positive control since it blocks gyrase acting on the A subunit

## O=C(NCCSSCCNC(=O)/C(Cc1c[nH]c2ccc(Br)cc12)=N/O)/C(Cc1c[nH]c2ccc(Br)cc12)=N/O [UVI5008]
[2]
  IC50: 20.4 µM
